{"source": "patent US20040096465A1", "about": "“Novel receptors for $1(helicobater pyroli) and use thereof” (priority 2001, published 2004)", "key": {"[1]": {"test_system": "Helicobacter pylori", "assay": "TLC bacterial overlay assay with 35S-labeled Helicobacter pylori", "format": "binding", "conditions": "for binding of Helicobacter pylori to the glycosphingolipid on TLC plates: overlay with 35S-labeled bacteria, autoradiography, visual evaluation; for lowest amount of glycolipid giving a positive response on TLC plates: dilution series, semi-quantitative, evaluated visually, pentaglycosylceramide mean of 7 experiments; for binding frequency / binding of Helicobacter pylori strain 032 to purified glycosphingolipids (FIGS. 7A and 7B): strain 032; for binding frequency: total number of plates about 100; for binding activity of neoglycolipid with regard to Helicobacter pylori: oligosaccharide reductively aminated with 4-hexadecylaniline (HDA); for binding of Helicobacter pylori strain 032 to purified glycosphingolipids (FIGS. 7A and 7B): 4 μg per lane, autoradiography 72 h"}, "[2]": {"test_system": "Helicobacter pylori", "conditions": "Mysore et al.; cited from earlier work"}, "[3]": {"test_system": "Helicobacter pylori binding to human gastrointestinal cell lines", "conditions": "Simon et al.; cited from earlier work"}}, "note": "“Also recorded” adds a separate entry of the source."}
{"compound": "Galβ4GlcNAcβ3(Galβ4GlcNAcβ6)Galβ4GlcβCer", "values": [{"measurement": "binding of Helicobacter pylori to the glycosphingolipid on TLC plates", "setting": "[1]", "value": "destroyed"}, {"measurement": "binding of Helicobacter pylori to the glycosphingolipid on TLC plates", "setting": "[1]; listed as glycosphingolipid from bovine buttermilk", "value": "non-binding"}]}
{"compound": "GlcNAcβ3Galβ4GlcNAcβ3Galβ4GlcβCer", "values": [{"measurement": "lowest amount of glycolipid giving a positive response on TLC plates", "setting": "[1]", "value": 0.039, "unit": "nmol/spot"}, {"measurement": "binding of Helicobacter pylori to the glycosphingolipid on TLC plates", "setting": "[1]", "value": "binding-active; also recorded: high affinity"}, {"measurement": "binding of Helicobacter pylori to the glycosphingolipid on TLC plates", "setting": "[1]; listed as five-sugar glycosphingolipid from rabbit thymus", "value": "equally active"}, {"measurement": "binding of Helicobacter pylori to the glycosphingolipid on TLC plates", "setting": "[1]; listed as pentaglycosylceramide", "value": "strong activity; also recorded: highly active; also recorded: most active species"}, {"measurement": "binding of Helicobacter pylori to the glycosphingolipid on TLC plates", "setting": "[1]; listed as pentaglycosylceramides", "value": "displayed binding activity"}, {"measurement": "binding frequency", "setting": "[1]", "value": "~90", "unit": "%"}]}
{"compound": "GlcNAcβ3Galβ4GlcNAc(red)-HDA", "values": [{"measurement": "binding activity of neoglycolipid with regard to Helicobacter pylori", "setting": "[1]", "value": "weakly binding or inactive"}]}
{"compound": "Galα3(Fucα2)Galβ4GlcNAcβ3Galβ4Glcβ1Cer [B6-2]", "values": [{"measurement": "binding of Helicobacter pylori to the glycosphingolipid on TLC plates", "setting": "[1]", "value": "non-binding; also recorded: inactive"}, {"measurement": "binding of Helicobacter pylori to the glycosphingolipid on TLC plates", "setting": "[1]; listed as Galα3(Fucα2)Galβ4GlcNAcβ3Galβ4Glcβ3Cer", "value": "non-binding"}]}
{"compound": "CC(=O)N[C@H]1[C@H](OC[C@H]2OC(O)[C@H](O)[C@@H](O)[C@H]2O)O[C@H](CO)[C@@H](O[C@@H]2O[C@H](CO)[C@H](O)[C@H](O[C@@H]3O[C@H](CO)[C@@H](O)[C@H](O)[C@H]3NC(C)=O)[C@H]2O)[C@@H]1O", "note": "(stereo partly drawn) [GlcNAcβ3Galβ4GlcNAcβ6Gal]", "values": [{"measurement": "binding activity of neoglycolipid with regard to Helicobacter pylori", "setting": "[1]", "value": "some binding activity"}]}
{"compound": "NeuAcα3GalNAcβ3Galβ4GlcNAcβ3Galβ4Glcβ1Cer [NeuAc-x2]", "values": [{"measurement": "binding of Helicobacter pylori to the glycosphingolipid on TLC plates", "setting": "[1]; listed as Neu5Acα3GalNAcβ3Galβ4GlcNAcβ3Galβ4GlcβCer", "value": "did not appear to bind"}, {"measurement": "binding of Helicobacter pylori to the glycosphingolipid on TLC plates", "setting": "[1]; listed as NeuAcα3GalNAcβ3Galβ4GlcNAcβ3Galβ4GlcβCer", "value": "non-binding"}, {"measurement": "binding of Helicobacter pylori to the glycosphingolipid on TLC plates", "setting": "[1]; listed as no. 24", "value": "complete loss of binding"}, {"measurement": "binding of Helicobacter pylori strain 032 to purified glycosphingolipids (FIGS. 7A and 7B)", "setting": "[1]", "value": "non-binding"}]}
{"compound": "GlcAβ3Galβ4GlcNAcβ3Galβ4GlcβCer", "values": [{"measurement": "binding of Helicobacter pylori to the glycosphingolipid on TLC plates", "setting": "[1]", "value": "binding active"}]}
{"compound": "Galα3Galβ4GlcNAcβ3Galβ4GlcNAcβ3Galβ4GlcβCer", "values": [{"measurement": "binding of Helicobacter pylori to the glycosphingolipid on TLC plates", "setting": "[1]", "value": "higher activity"}, {"measurement": "binding of Helicobacter pylori to the glycosphingolipid on TLC plates", "setting": "[1]; listed as no. 28", "value": "observed binding"}]}
{"compound": "GlcNAcβ3Galβ4GlcβCer", "values": [{"measurement": "binding of Helicobacter pylori to the glycosphingolipid on TLC plates", "setting": "[1]", "value": "not binding"}, {"measurement": "binding of Helicobacter pylori to the glycosphingolipid on TLC plates", "setting": "[1]; listed as triglycosylceramide", "value": "inactive"}]}
{"compound": "GlcNAcβ3Galβ4GlcNAcβ6GlcNAc(red)-HDA", "values": [{"measurement": "binding activity of neoglycolipid with regard to Helicobacter pylori", "setting": "[1]", "value": "strong binding activity"}, {"measurement": "binding activity of neoglycolipid with regard to Helicobacter pylori", "setting": "[1]; listed as GlcNAcβ3Galβ4GlcNAcβ6GlcNAc", "value": "high affinity binding"}]}
{"compound": "Galβ4GlcNβ3Galβ4GlcβCer", "values": [{"measurement": "binding of Helicobacter pylori to the glycosphingolipid on TLC plates", "setting": "[1]", "value": "not binding"}, {"measurement": "binding of Helicobacter pylori to the glycosphingolipid on TLC plates", "setting": "[1]; listed as no. 6", "value": "loss of bacterial binding"}]}
{"compound": "GalNAcα3Galβ4GlcNAcβ3Galβ4GlcβCer", "values": [{"measurement": "binding of Helicobacter pylori to the glycosphingolipid on TLC plates", "setting": "[1]", "value": "bind Helicobacter pylori"}, {"measurement": "binding of Helicobacter pylori to the glycosphingolipid on TLC plates", "setting": "[1]; listed as GalNAcα3 Galβ4GlcNAcβ3Galβ4GlcβCer", "value": "binding was also found"}]}
{"compound": "Galα3Galβ4GlcNAcβ3Galβ4GlcβCer", "values": [{"measurement": "binding of Helicobacter pylori to the glycosphingolipid on TLC plates", "setting": "[1]", "value": "bind Helicobacter pylori"}, {"measurement": "binding of Helicobacter pylori to the glycosphingolipid on TLC plates", "setting": "[1]; listed as B5", "value": "binding"}, {"measurement": "binding of Helicobacter pylori to the glycosphingolipid on TLC plates", "setting": "[1]; listed as B5 glycosphingolipid", "value": "equally active"}, {"measurement": "binding of Helicobacter pylori strain 032 to purified glycosphingolipids (FIGS. 7A and 7B)", "setting": "[1]", "value": "binding-active"}]}
{"compound": "maltoheptaose(red)-HDA [reference compound]", "values": [{"measurement": "binding activity of neoglycolipid with regard to Helicobacter pylori", "setting": "[1]", "value": "weakly binding or inactive"}]}
{"compound": "Fucα2Galβ4GlcNAcβ3Galβ4Glcβ1Cer [H5-2]", "values": [{"measurement": "binding of Helicobacter pylori to the glycosphingolipid on TLC plates", "setting": "[1]", "value": "absence of binding"}, {"measurement": "binding of Helicobacter pylori to the glycosphingolipid on TLC plates", "setting": "[1]; listed as HS-2", "value": "inactive"}]}
{"compound": "Galβ4GlcNAcβ3Galβ4GlcβCer", "values": [{"measurement": "lowest amount of glycolipid giving a positive response on TLC plates", "setting": "[1]", "value": "~0.3", "unit": "nmol/spot"}, {"measurement": "binding of Helicobacter pylori to the glycosphingolipid on TLC plates", "setting": "[1]", "value": "binding is weaker"}, {"measurement": "binding of Helicobacter pylori to the glycosphingolipid on TLC plates", "setting": "[1]; listed as tetraglycosylceramides", "value": "displayed binding activity"}, {"measurement": "binding of Helicobacter pylori strain 032 to purified glycosphingolipids (FIGS. 7A and 7B)", "setting": "[1]", "value": "binding"}]}
{"compound": "CCCCCCCCCCCCCCCCc1ccc(NC[C@H](O)[C@@H](O)[C@H](O[C@@H]2O[C@H](CO)[C@H](O)[C@H](O[C@@H]3O[C@H](CO)[C@@H](O[C@@H]4O[C@H](CO)[C@H](O)[C@H](O[C@@H]5O[C@H](CO)[C@@H](O)[C@H](O)[C@H]5NC(C)=O)[C@H]4O)[C@H](O)[C@H]3NC(C)=O)[C@H]2O)[C@H](O)CO)cc1", "note": "[GlcNAcβ3Galβ4GlcNAcβ3Galβ4Glc(red)-HDA]", "values": [{"measurement": "binding activity of neoglycolipid with regard to Helicobacter pylori", "setting": "[1]", "value": "clear binding activity"}]}
{"compound": "GalNAcβ3Galβ4GlcNAcβ3Galβ4GlcβCer", "values": [{"measurement": "binding of Helicobacter pylori to the glycosphingolipid on TLC plates", "setting": "[1]", "value": "bind Helicobacter pylori"}, {"measurement": "binding of Helicobacter pylori to the glycosphingolipid on TLC plates", "setting": "[1]; listed as x2 GSL", "value": "binding"}, {"measurement": "binding of Helicobacter pylori strain 032 to purified glycosphingolipids (FIGS. 7A and 7B)", "setting": "[1]", "value": "binding was also found"}]}
{"compound": "Galβ4GlcNAcβ3Galβ4GlcNAcβ3Galβ4GlcβCer", "values": [{"measurement": "lowest amount of glycolipid giving a positive response on TLC plates", "setting": "[1]", "value": "~0.2", "unit": "nmol/spot"}, {"measurement": "binding of Helicobacter pylori to the glycosphingolipid on TLC plates", "setting": "[1]", "value": "weaker binding; also recorded: weaker activity"}, {"measurement": "binding of Helicobacter pylori to the glycosphingolipid on TLC plates", "setting": "[1]; listed as Galβ4GlcNAcβ3Galβ4-GlcNAcβ3Galβ4GlcβCer", "value": "binding-active; also recorded: reduced affinity"}, {"measurement": "binding of Helicobacter pylori to the glycosphingolipid on TLC plates", "setting": "[1]; listed as hexaglycosylceramides", "value": "displayed binding activity"}, {"measurement": "binding frequency", "setting": "[1]", "value": "~90", "unit": "%"}]}
{"compound": "GalNAcβ3Galβ3Galβ4GlcNAcβ3Galβ4Glcβ3Cer [GalNAcβ3-B5]", "values": [{"measurement": "binding of Helicobacter pylori to the glycosphingolipid on TLC plates", "setting": "[1]", "value": "non-binding"}, {"measurement": "binding of Helicobacter pylori to the glycosphingolipid on TLC plates", "setting": "[1]; listed as GalNAcβ3Galβ3Galβ4GlcNAcβ3Galβ4Glcβ3Cer", "value": "did not appear to bind"}, {"measurement": "binding of Helicobacter pylori to the glycosphingolipid on TLC plates", "setting": "[1]; listed as no. 25", "value": "complete loss of binding"}]}
{"compound": "Glc(A-methylamide)β3Galβ4GlcNAcβ3Galβ4GlcβCer", "values": [{"measurement": "binding of Helicobacter pylori to the glycosphingolipid on TLC plates", "setting": "[1]", "value": "very strong binding"}]}
{"compound": "sialyl-lactose", "values": [{"measurement": "efficacy in rhesus monkey animal model of the infection", "setting": "[2]", "value": "effective"}, {"measurement": "inhibition of Helicobacter pylori binding to human gastrointestinal cell lines", "setting": "[3]", "value": "inhibits"}]}
{"compound": "Galα3Galβ4GlcNAcβ3Galβ4Glc(red)-HDA", "values": [{"measurement": "binding activity of neoglycolipid with regard to Helicobacter pylori", "setting": "[1]", "value": "clear binding activity"}]}
{"compound": "Glcβ3Galβ4GlcNAcβ3Galβ4GlcβCer", "values": [{"measurement": "binding of Helicobacter pylori to the glycosphingolipid on TLC plates", "setting": "[1]", "value": "strong binding"}]}
{"compound": "NeuGcα3Galβ4GlcNAcβ3Galβ4GlcNAcβ3Galβ4GlcβCer", "values": [{"measurement": "binding by Helicobacter pylori isolates", "setting": "[1]; about 60 isolates tested", "value": "bound by most Helicobacter pylori isolates"}, {"measurement": "binding of Helicobacter pylori to the glycosphingolipid on TLC plates", "setting": "[1]", "value": "weaker binding"}]}
{"compound": "Galα3Galβ4GlcNβ3Galβ4GlcβCer", "values": [{"measurement": "binding of Helicobacter pylori to the glycosphingolipid on TLC plates", "setting": "[1]", "value": "not binding"}, {"measurement": "binding of Helicobacter pylori to the glycosphingolipid on TLC plates", "setting": "[1]; listed as Galα3Galβ4GlcNH2βGalβ4GlcβCer", "value": "non-binding"}, {"measurement": "binding of Helicobacter pylori to the glycosphingolipid on TLC plates", "setting": "[1]; listed as no. 14", "value": "loss of bacterial binding"}]}
